Values quoted from earlier work in patent US20100260859A1 (ELAN PHARMA INTERNATIONAL LIMITED, priority 2009, published 2010).

CN1CCN(C2=Nc3cc(Cl)ccc3Nc3ccccc32)CC1 [Clozapine, 8-chloro-11-(4-methylpiperazin-1-yl)-5H-dibenzo[b,e][1,4]diazepine]
established intrinsic solubility of clozapine in water: 16 µg/mL | solubility in water (in words): very slightly soluble in water
